Source: patent publication US20240133870A1, “COMBINED TREATMENT FOR CANCER” (Yeda Research and Development Co. Ltd., priority 2021, published 2024)

How the values were obtained:
Type in all cases: cell-based, human
[1] = test system: HT-29 orthotopic xenograft colorectal tumors; test: EVOC of orthotopic colon tumors, pERK and H&E/BrDu; settings: AZD4547 0.5 μM, 96 hours of incubation
Text: 500-700 μmm^3 tumors were resected, sliced, and cultured ex-vivo. Following 4 days of drug treatment, slices were fixed and embedded in paraffin blocks. FFPE slices were stained by H&E, and the percentage of viable cancer cells was morphologically assessed on H&E stained sections by a pathologist as the ratio between viable cancer cell area and total cancer area (viable cancer cells plus necrotic cancer cells). […] Each black dot in a given treatment condition represents a different tumor. P-values were calculated by two-sided t-test. *** P<0.001 ** P<0.01. Error bars represent standard error. […] Names of the six secreted factors with the highest rScore are shown. Factors related to TNF pathways are marked in gray. Results represent the average of at least two experiments. […] Cohort size pre-treatment: 5-6, P-values of the difference on the last day of experiment were calculated by one-sided Mann-Whitney test. * P<0.05. […] Viability percentage was calculated based on the entire field of view per treatment combination. […] FFPE slices were stained by pERK and pERK activity was assessed by a pathologist. […]
For the ex-vivo experiments EVOCs from immunocompromised mice bearing human tumors were generated, as further described hereinbelow. For the in-vivo validation experiments, mice bearing subcutaneous tumors were used; and response was measured by evaluating tumor volume. […]

[2] = test system: SK-MEL-5 BRAF (V600E) melanoma cells; test: Co-culture of stroma (WI-38 or HS-5) and cancer cells; settings: co-culture with HS-5; inhibitor added to vemurafenib
Protocol: SK-MEL-5 BRAF (V600E) melanoma cells were co-cultured with the lung-derived stromal cell line WI-38 or with the bone marrow-derived stromal cell line HS-5 with or without vemurafenib (4 μM). […] Vehicle—DMSO, EGFRi—gefitinib (0.1 μM), EGFRi/HER2i—lapatinib (10 nM), METi—crizotinib (0.1 μM), FGFRi—AZD4547 (50 nM), NFkB/TNFRi—CAPE (10 μM), TGFBRi-LY2109761 (0.5 μM), gp130i—SC144 (1 nM). […] Error bars represent standard error. […] Error bars represent standard error. […] Human BRAF (V600E) melanoma cell lines UACC62 or G361 were used to generate xenograft tumor models in various tissues of nude mice. When tumors reached a volume of 500-700 μmm^3, they were resected, sliced, and cultured ex-vivo in the presence of different drug combinations or DMSO control. Following 4 days of drug treatment, slices were fixed, embedded in paraffin blocks, and subjected to immunohistochemistry, using anti-pERK antibody, or to immuno-fluorescence, using anti-pFGFR1 antibody. BRAFi (vemurafenib, 4 μM), FGFRi (AZD4547, 2 μM). Scale bar represents 50 μm.
Four hours later, the melanoma BRAF (V600E) mutated cell line SK-MEL-5 was seeded on top of the stromal cells at a concentration of 1700 cells per well, or seeded without stroma. […] Concentrations of the inhibitors were based on dose curves with SK-MEL-5. For each inhibitor of potential mechanism of resistance, the maximal concentration with minimal effect (toxicity) on cell growth was selected (Cmax).
To compare rScore value of stroma-mediated resistance with or without a given inhibitor, the rScore values of each inhibitor in the presence of stroma, was calculated. As a reduction in rScore may stem from mere toxicity of the inhibitor, rather than the abrogation of the stroma mediated resistance, each inhibitor rScore was penalized by its toxicity.
rScoreinhibitor=rScoreinhibitor+(rScorestroma−rScoreinhibitor)*tOxicitY(Cmax)inhibitor

[3] = test system: colorectal BRAF (V600E) patient tumor; test: EVOC of a colorectal BRAF (V600E) patient biopsy, viability; settings: Dabrafenib 4 μM/trametinib 0.5 μM with or without trastuzumab or AZD4547 2 μM
Protocol: Freshly resected biopsy was sliced, and cultured ex vivo. Following 4 days of drug treatment, slices were fixed and embedded in paraffin blocks. FFPE slices were stained by H&E, and the percentage of viable cancer cells was morphologically assessed on H&E stained sections by a pathologist as the ratio between viable cancer cell area and total cancer area (viable cancer cells plus necrotic cancer cells). […] Vehicle—DMSO, FGFRi—AZD4547 2 μM, HER2i—trastuzumab 30 g/ml, BRAFi/MEKi—Dabrafenib 4 μM/trametinib 0.5 μM.
Tumor tissue was obtained from patients at the time of operation or at the time of tissue core biopsy. Following resection, the fresh tissue was placed in ice-cold PBS for immediate transfer to the lab for ex vivo organ culturing. […]
Immunohistochemistry of EVOC tissues: To assess response therapy, 4 μm FFPE tissue slices were stained with H&E, or with specific antibodies: anti-pERK (Cell Signaling, #4370) followed by HRP conjugated secondary antibody (anti-Rabbit HRP, ZUC032, ZytoChem) and DAB staining (DAB substrate kit, DAB057, ZytoChem). […] All slides were scanned using the Pannoramic SCAN II (3[sequence]) and analyzed by a pathologist. The percentage of viable cancer cells was morphologically assessed on H&E stained sections by a pathologist as the ratio between viable cancer cell area and total cancer area (viable cancer cells plus necrotic cancer cells).

AZD4547
H&E and BrDu staining of tissue [1]: live and proliferating tissue | abrogation of stroma-mediated resistance to vemurafenib [2]: needed to abrogate the resistance effect of HS-5 | cancer cell viability [3]: did not improve the response to treatment
